{"source": "patent US20230158040A1", "about": "“METHYLTHIONINIUM COMPOUNDS FOR USE IN THE TREATMENT OF HYPOXEMIA” (WisTa Laboratories Ltd., priority 2020, published 2023)", "key": {"metHb": {"tested_on": "metHb", "experiment": "metHb levels in clinical trial subjects receiving LMTM", "format": "in vivo, human", "text": "In order to understand this effect further the inventors investigated whether the low oxygen saturation in these patients is due to elevation in metHb levels. There was no difference in metHb levels at baseline between subjects with low SpO2 and those with SpO2 levels in the normal range.\nTherefore, LMTM is able to act on haemoglobin over a range of doses in such a way as to enhance oxygen saturation in the blood by a novel mechanism unrelated to its known effects on metHb."}, "[1]": {"experiment": "Oxygen saturation (SpO2) in clinical trial subjects with low oxygen saturation, pre-dose vs 4 hrs after a single dose", "format": "in vivo, human", "text": "The present inventors have used data available for patients participating in clinical trials to determine whether LMT enhances oxygen saturation of blood. Data were available for 18 subjects with oxygen saturation <94% at baseline (lower limit of normal range is\nThese patients recorded a variety of respiratory or other conditions of various degrees of severity which it was suspected may have contributed to the detected hypoxemia, including sleep apnoea, insomnia (which may be indicative of Paroxysmal nocturnal dyspnea or paroxysmal nocturnal dyspnoea), asbestosis, oedema, asthma, bronchitis, allergies, angioedema, pneumonia, acute myocardial infarction/ hypertension, Coronary artery disease with angioplasty and stent insertion, transient ischaemic attacks (TIA), hypothyroidism, diabetes, syncope, tachycardia and sepsis. […]"}, "[2]": {"conditions": "LMT at high concentrations, oral doses in the range 150-250 mg/day"}}, "data": [{"smiles": "CN(C)c1ccc2c(c1)Sc1cc(N(C)C)ccc1N2", "note": "[LMTM, leuco-methylthioninium bis(hydromethanesulfonate)]", "values": [{"measurement": "metHb levels", "setting": "metHb; LMTM at higher doses / high dosages over a period of time, FIG. 3", "result": "systematically increases"}, {"measurement": "oxygen saturation at 4 hours", "setting": "[1]; single dose of LMT at 4 mg and ~100 mg (mean of 75, 100, 125 mg), 18 subjects with oxygen saturation <94% at baseline, pre-dose vs 4 hrs post-dose", "result": "significantly increased"}]}, {"smiles": "CN(C)c1ccc2c(c1)Sc1cc(N(C)C)ccc1N2", "note": "[LMT]", "values": [{"measurement": "metHb levels", "setting": "metHb; [2]", "result": "measurable increase"}, {"measurement": "SpO2 levels", "setting": "[1]; [2]", "result": "increase SpO2 levels"}]}]}
